Results reported in patent US11555029B2, “PD-1/PD-L1 inhibitors” (Gilead Sciences, Inc., priority 2018, dated 2023).
Several values for one entry are separate records, joined by “and”; a condition that tells them apart may be missing. Identical values can stand only once.

Experiments:
[1] = test system: HBV-specific CD8+ T cells from CHB patient PBMCs; assay: HBV-specific CD8+ T cell expansion and recall response assay in CHB patient PBMCs (IFN-γ, granzyme B by flow cytometry); assay type: cell-based, human
Protocol: (§1) Assays PBMC Isolation from Whole Blood PBMCs were isolated from whole blood using a standard Ficoll® Paque gradient. Briefly, 25-30 mL of blood was gently overlaid on top of 15 mL Ficoll® Paque Plus solution (GE Healthcare, Chicago, Ill.) in a 50 mL Falcon tube, and centrifuged in an Allegra X-14R (Beckman Coulter, Indianapolis, Ind.) at 520 g for 20 minutes at 25° C. […] Next, the cells were centrifuged at 520 g for 5 minutes and red blood cells (RBC) lysed for 5 minutes at room temperature using RBC Lysis Buffer (eBioscience, San Diego, Calif.). […] PBMCs were either subsequently used for the T cell expansion assay, or were cryopreserved with 10% DMSO in PBS before further use. CD8^+ and CD4^+ T Cell 7-Day Expansion and Recall Response Assay
(§2) PBMCs were seeded at 2-4×10^5 cells/well in 96-well round bottom plates (Corning, N.Y.). […] PBMCs were incubated for 7 days at 37° C. with 5% CO2 in a humidified incubator. […] To inhibit protein transport, 1 μg/mL brefeldin. A solution (Sigma) was added to each well. After overnight incubation, cells were processed for immunostaining and flow cytometry as described herein.
(§3) Washed cells were resuspended in Live/Dead Aquamine Stain (Invitrogen) per manufacturer's instructions to determine the viability of the cells by flow cytometry. Live/Dead Aqua stained PBMCs were washed twice with FACS staining buffer (1% FBS in PBS), and then incubated with 50 μL of Fc blocking reagent (BD Biosciences, Franklin Lakes, N.J.) for 10 minutes at room temperature. A mixture of antibodies (50 μL/well) described in Table 6 were added to the blocking solution for surface staining, and PBMCs were incubated with the antibodies for 40 minutes at 4° C. […] Cells were washed twice with the permeabilization reagent included in the FoxP3 staining kit and incubated with antibodies for intracellular staining of IFN-γ and GrB (Table 6) at 1.0 μg/mL. After 1 hour incubation at 4° C., PBMCs were centrifuged and washed twice before being resuspended in FACS buffer. Stained PBMCs were analyzed by flow cytometry using a BD LSRFortessa X-20 Cell Analyzer (Becton Dickinson). BD Comp Beads (BD Biosciences) were used as compensation controls. CD8^+ and CD4^+ T cells were identified by gating on the live Aquamine^−CD3^+CD8^+ and Aquamine^−CD3^+CD4^+ PBMC population respectively.
(§4) Flow cytometry data was analyzed using FlowJo Flow Cytometry Analysis Software v10 (TreeStar, Ashland, Oreg.). Data was exported and statistical analysis was performed using GraphPad Prism v6 (GraphPad Software, La Jolla, Calif.). Statistical significance relative to the DMSO control was calculated by two-tailed, paired t-test.

[2] = test system: HBV-specific CD4+ T cells from CHB patient PBMCs; assay: HBV-specific CD4+ T cell expansion and recall response assay in CHB patient PBMCs (IFN-γ, granzyme B by flow cytometry); assay type: cell-based, human
Protocol: as §1, §2, §3, §4

[3] = 650 nM compound 139 or 10 μg/mL durvalumab, PBMCs from 9 of the 14 CHB donors (FIG. 1B)

In the case of `COc1nc(-c2cccc(-c3cccc(-c4cnc(CNC[C@@H]5CCC(=O)N5)c(OC)n4)c3Cl)c2Cl)cnc1CNC[C@@H]1CCC(=O)N1` [compound 139], the “increase of granzyme B (GrB)+ CD8+ T cells” value ([1]; 650 nM compound 139, HBV core peptide-stimulated PBMCs from 14 CHB donors, vs DMSO) is reported as 1.2 fold, the “increase of GrB+CD8+ T cells, comparison with durvalumab” value [1, 3] is reported as 1.2 fold and the “increase of IFN-γ+CD8+ T cells, comparison with durvalumab” value [1, 3] is reported as 2.5 fold. For the same compound, the “IFN-γ and Granzyme B Production in chronic hepatitis B (CHB) CD8+ T Cells” value ([1]; FIG. 1A and FIG. 1B) was “enhances”, the “% IFN-γ+ (IFN-γ+ CD8+ T cells)” value ([1]; individual CHB donor, HBV core peptide-stimulated PBMCs, compound 139 650 nM) was 0.94% and 0.41% and 0.61% and 0.90% and 0.30% and the “increase of granzyme B (GrB)+ CD4+ T cells” value ([2]; 650 nM compound 139, HBV core peptide-stimulated PBMCs from CHB donors, vs DMSO) was 1.8 fold. For the same compound, the “frequency of CD4+ IFN-γ+ T cells” value ([2]; 650 nM compound 139 or 10 μg/mL durvalumab treated PBMCs) was 2.5%, the “frequency of GrB+CD4+ T cells” value ([2]; 650 nM compound 139 or 10 μg/mL durvalumab, DMSO 3.5%) was 4.7% and the “IFN-γ and Granzyme B Production in chronic hepatitis B (CHB) CD4+ T Cells” value ([2]; FIG. 2A and FIG. 2B) was “enhances”.
